Our source for the IC50 values is US6384061B1, “Hydantoin compounds and methods related thereto” (LG Chemical Ltd., priority 2000, dated 2002).

In one assay the target is T1, Ras farnesyl transferase (Homo sapiens, UniProt P49354+P49356).
T1 construct: made in house
Briefly: Ras farnesyl transferase inhibiting activity (filter-binding, tritium-farnesylpyrophosphate, Ras-CVLS substrate). The assay is classed as biochemical. The note with it: recombinant Ras farnesyl transferase, 30 minutes at 37° C., read-out: Ftase IC50.

Assay [1] concerns intracellular Ras farnesyl transferase, Rat2 cell line. Briefly: Intracellular Ras farnesyl transferase inhibiting activity in transformed Rat2 cells (35S-methionine labelling, Y13-259 immunoprecipitation, SDS-PAGE). It counts as cell-based. The note with it: Rattus norvegicus; transformed Rat2 fibroblast cell line; concentration inhibiting 50% of farnesyl binding of Ras protein; read-out: Ftase CIC50. The method in brief:
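Rat2 fibroblasts transformed with H-Ras, or with H-Ras carrying the K-Ras polybasic lysine C-terminus, were treated with compound (1% DMSO). After 4 h they were labelled for 20 h with 150 μCi/ml 35S-methionine. Lysates were immunoprecipitated with Y13-259, run on 13.5% SDS-PAGE and autoradiographed; CIC50 is the concentration halving farnesylated versus unfarnesylated Ras band intensity.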

The target of assay [2] is T2, Geranylgeranyl transferase (Bos taurus, UniProt P29702+Q5EAD5).
T2 construct: Geranylgeranyl transferase was purified from bovine brain; from tissue; host or cells: bovine brain
Nature of the assay: Geranylgeranyl transferase inhibiting activity (geranylgeranyl pyrophosphate, Ras-CVIL substrate). Conditions: geranylgeranyl transferase purified from bovine brain, read-out: GGtase IC50. It counts as biochemical. The method in brief: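 Bovine-brain-purified enzyme run as in the farnesyl transferase assay, with geranylgeranyl pyrophosphate and Ras-CVIL substrate protein under similar reaction conditions.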

For `CC1(c2cccc3ccccc23)C(=O)N(CCCc2cncn2Cc2ccc(C#N)cc2)C(=O)N1Cc1ccco1` (stereo not drawn) [Compound 55, 4-{5-[3-(3-furan-2-ylmethyl-4-methyl-4-naphthalen-1-yl-2,5-dioxo-imidazolidin-1-yl)-propyl]-imidazol-1-ylmethyl}-benzonitrile], the IC50 was 0.045 µM on Ras farnesyl transferase, less than 20 µM in assay [1] and greater than 10 µM in assay [2].
On to `CC1(c2cccc3ccccc23)C(=O)N(CCCc2cncn2Cc2ccc(C#N)cc2)C(=O)N1C(=O)c1ccco1` (stereo not drawn) [Compound 56, 4-(5-{3-[3-(furan-2-carbonyl)-4-methyl-4-naphthalen-1-yl-2,5-dioxo-imidazolidin-1-yl]-propyl}-imidazol-1-ylmethyl)-benzonitrile], for which the IC50 at Ras farnesyl transferase was 0.08 µM; in assay [1], less than 20 µM; in assay [2] it was greater than 10 µM.
In the same order, the values of `COC(=O)C(CCSC)NC(=O)CN1C(=O)N(CCCc2cncn2Cc2ccc(C#N)cc2)C(=O)C1(C)c1cccc2ccccc12` (stereo not drawn) [Compound 57, 2-[2-(3-{3-[3-(4-cyanobenzyl)-3H-imidazol-4-yl]-propyl}-5-methyl-5-naphthalen-1-yl-2,4-dioxo-imidazolidin-1-yl)acetylamino]-4-methylsulfanyl-butyric acid methyl ester] are 0.016 µM, 400 µM and greater than 10 µM.
`CSCCC(NC(=O)CN1C(=O)N(CCCc2cncn2Cc2ccc(C#N)cc2)C(=O)C1(C)c1cccc2ccccc12)C(=O)O` (stereo not drawn) [Compound 58, 2-[2-(3-{3-[3-(4-cyanobenzyl)-3H-imidazol-4-yl]-propyl}-5-methyl-5-naphthalen-1-yl-2,4-dioxo-imidazolidin-1-yl)-acetylamino]-4-methylsulfanyl-butyric acid]: the IC50 at Ras farnesyl transferase was 0.014 µM; in assay [1], less than 20 µM; in assay [2] it was greater than 10 µM.
In the same order, the values of `CC1(c2cccc3ccccc23)NC(=O)N(Cc2cncn2Cc2ccc(C#N)cc2)C1=O` (stereo not drawn) [Compound 59, 4-[5-(4-methyl-4-naphthalen-1-yl-2,5-dioxo-imidazolidin-1-ylmethyl)-imidazol-1-ylmethyl]-benzonitrile] are 0.44 µM, less than 20 µM and greater than 10 µM.
The corresponding values for `CN1C(=O)N(Cc2cncn2Cc2ccc(C#N)cc2)C(=O)C1(C)c1cccc2ccccc12` (stereo not drawn) [Compound 60, 4-[5-(3-methyl-4-methyl-4-naphthalen-1-yl-2,5-dioxo-imidazolidin-1-ylmethyl)-imidazol-1-ylmethyl]-benzonitrile] are 0.16 µM, less than 20 µM and greater than 10 µM.
The corresponding values for `CCN1C(=O)N(Cc2cncn2Cc2ccc(C#N)cc2)C(=O)C1(C)c1cccc2ccccc12` (stereo not drawn) [Compound 61, 4-[5-(3-ethyl-4-methyl-4-naphthalen-1-yl-2,5-dioxo-imidazolidin-1-ylmethyl)-imidazol-1-ylmethyl]-benzonitrile] are 0.16 µM, less than 20 µM and greater than 10 µM.
As for `CCOC(=O)CN1C(=O)N(Cc2cncn2Cc2ccc(C#N)cc2)C(=O)C1(C)c1cccc2ccccc12` (stereo not drawn) [Compound 62, {3-[3-(4-cyano-benzyl)-3H-imidazol-4-ylmethyl]-5-methyl-5-naphthalen-1-yl-2,4-dioxo-imidazolidin-1-yl)-acetic acid ethyl ester], the IC50 on Ras farnesyl transferase is 0.05 µM; in assay [1], less than 20 µM; in assay [2], greater than 10 µM.
In the same order, the values of `CC1(c2cccc3ccccc23)C(=O)N(Cc2cncn2Cc2ccc(C#N)cc2)C(=O)N1Cc1cccc(C#N)c1` (stereo not drawn) [Compound 63] are 0.05 µM, less than 20 µM and greater than 10 µM.
The corresponding values for `COc1ccc(C(=O)N2C(=O)N(CCCn3ccnc3)C(=O)C2(C)c2cccc3ccccc23)cc1` (stereo not drawn) [Compound 64, 3-(3-imidazol-1-yl-propyl)-1-(4-methoxy-benzoyl)-5-methyl-5-naphthalen-1-yl-imidazolidin-2,4-dione] are 0.7 µM, less than 20 µM and greater than 10 µM.
